Measurements published in ChEMBL document CHEMBL1201862, “PubChem BioAssay data set” (2004).
Blank lines part the entries; values can stand above or below the compound they belong to. Active and inactive are the calls of the source.

How the values were obtained:
[1] = target: T1, Coagulation factor XII (Homo sapiens, UniProt P00748); assay type: functional;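 also: activated factor XIIa alpha cleaving a fluorogenic AMC peptide substrate; inhibitor potency from loss of enzyme activity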
T1 sequence (P00748 whole entry): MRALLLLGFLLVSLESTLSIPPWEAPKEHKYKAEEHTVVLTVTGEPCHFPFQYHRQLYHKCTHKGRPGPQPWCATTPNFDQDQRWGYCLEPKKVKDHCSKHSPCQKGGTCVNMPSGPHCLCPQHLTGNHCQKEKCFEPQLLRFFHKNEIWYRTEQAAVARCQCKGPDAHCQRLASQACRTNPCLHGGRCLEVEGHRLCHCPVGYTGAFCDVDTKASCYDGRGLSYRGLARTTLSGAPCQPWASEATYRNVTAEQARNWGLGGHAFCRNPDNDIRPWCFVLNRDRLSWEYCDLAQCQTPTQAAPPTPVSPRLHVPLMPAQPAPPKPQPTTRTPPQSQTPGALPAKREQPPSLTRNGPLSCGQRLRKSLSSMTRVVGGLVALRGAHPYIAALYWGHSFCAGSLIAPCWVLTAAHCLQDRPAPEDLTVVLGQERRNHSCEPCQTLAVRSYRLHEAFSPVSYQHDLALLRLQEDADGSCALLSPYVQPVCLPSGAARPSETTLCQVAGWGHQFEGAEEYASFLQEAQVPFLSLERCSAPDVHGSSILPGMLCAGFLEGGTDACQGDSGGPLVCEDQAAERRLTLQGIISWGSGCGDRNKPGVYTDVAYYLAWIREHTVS

[2] = target: T2, Calpain-2 catalytic subunit (Sus scrofa, UniProt P43367); assay: m-calpain protease blockers, concentration series – biochemical, fluorogenic peptide substrate, dose response (AID 1420); assay type: functional
T2 sequence (P43367 whole entry): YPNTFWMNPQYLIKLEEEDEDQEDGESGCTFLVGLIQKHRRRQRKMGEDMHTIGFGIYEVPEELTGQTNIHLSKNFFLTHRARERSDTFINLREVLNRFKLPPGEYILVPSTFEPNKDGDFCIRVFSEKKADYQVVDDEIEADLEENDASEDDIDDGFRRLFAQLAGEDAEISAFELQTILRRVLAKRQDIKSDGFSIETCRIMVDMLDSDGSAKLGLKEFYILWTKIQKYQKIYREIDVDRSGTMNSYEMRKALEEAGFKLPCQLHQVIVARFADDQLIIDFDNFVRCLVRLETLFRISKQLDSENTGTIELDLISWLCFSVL

[3] = target: T3, Corticotropin-releasing factor receptor 2/Corticotropin-releasing factor-binding protein (Homo sapiens, UniProt P24387+Q13324); assay: activators of CRF receptor 2 with binding protein – uHTS hits, confirmation (AID 602473); assay type: functional; settings: read-out: EC50_Mean
T3 sequence (Q13324 whole entry): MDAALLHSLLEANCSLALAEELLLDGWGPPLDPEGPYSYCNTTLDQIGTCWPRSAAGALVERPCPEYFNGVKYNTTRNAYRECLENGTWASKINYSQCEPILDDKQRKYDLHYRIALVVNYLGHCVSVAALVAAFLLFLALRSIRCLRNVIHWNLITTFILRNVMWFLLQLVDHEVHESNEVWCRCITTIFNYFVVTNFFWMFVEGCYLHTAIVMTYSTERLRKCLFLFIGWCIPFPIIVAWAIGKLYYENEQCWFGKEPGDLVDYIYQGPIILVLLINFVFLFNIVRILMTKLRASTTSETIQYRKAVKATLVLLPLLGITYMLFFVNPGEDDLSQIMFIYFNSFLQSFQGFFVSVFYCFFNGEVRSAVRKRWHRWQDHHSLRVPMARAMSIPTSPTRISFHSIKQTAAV
T3 sequence (P24387 whole entry): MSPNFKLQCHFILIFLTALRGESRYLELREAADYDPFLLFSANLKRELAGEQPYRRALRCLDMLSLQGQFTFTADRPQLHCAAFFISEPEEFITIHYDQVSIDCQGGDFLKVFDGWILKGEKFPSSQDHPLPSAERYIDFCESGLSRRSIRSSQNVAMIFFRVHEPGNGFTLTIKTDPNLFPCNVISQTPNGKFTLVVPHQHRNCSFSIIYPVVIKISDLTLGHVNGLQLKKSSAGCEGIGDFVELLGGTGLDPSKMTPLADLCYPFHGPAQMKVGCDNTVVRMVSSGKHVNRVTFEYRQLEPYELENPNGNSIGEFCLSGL

[4] = target: T4, Fatty acid synthase (Homo sapiens, UniProt P49327); assay: inhibition of human FAS-TE enzyme activity – biochemical, kinetic fluorescence intensity, dose response (AID 624326); assay type: functional;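 also: rate of fluorescence rise from hydrolysis of a fluorogenic O-methyl fluorescein ester substrate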
T4 sequence (P49327 whole entry): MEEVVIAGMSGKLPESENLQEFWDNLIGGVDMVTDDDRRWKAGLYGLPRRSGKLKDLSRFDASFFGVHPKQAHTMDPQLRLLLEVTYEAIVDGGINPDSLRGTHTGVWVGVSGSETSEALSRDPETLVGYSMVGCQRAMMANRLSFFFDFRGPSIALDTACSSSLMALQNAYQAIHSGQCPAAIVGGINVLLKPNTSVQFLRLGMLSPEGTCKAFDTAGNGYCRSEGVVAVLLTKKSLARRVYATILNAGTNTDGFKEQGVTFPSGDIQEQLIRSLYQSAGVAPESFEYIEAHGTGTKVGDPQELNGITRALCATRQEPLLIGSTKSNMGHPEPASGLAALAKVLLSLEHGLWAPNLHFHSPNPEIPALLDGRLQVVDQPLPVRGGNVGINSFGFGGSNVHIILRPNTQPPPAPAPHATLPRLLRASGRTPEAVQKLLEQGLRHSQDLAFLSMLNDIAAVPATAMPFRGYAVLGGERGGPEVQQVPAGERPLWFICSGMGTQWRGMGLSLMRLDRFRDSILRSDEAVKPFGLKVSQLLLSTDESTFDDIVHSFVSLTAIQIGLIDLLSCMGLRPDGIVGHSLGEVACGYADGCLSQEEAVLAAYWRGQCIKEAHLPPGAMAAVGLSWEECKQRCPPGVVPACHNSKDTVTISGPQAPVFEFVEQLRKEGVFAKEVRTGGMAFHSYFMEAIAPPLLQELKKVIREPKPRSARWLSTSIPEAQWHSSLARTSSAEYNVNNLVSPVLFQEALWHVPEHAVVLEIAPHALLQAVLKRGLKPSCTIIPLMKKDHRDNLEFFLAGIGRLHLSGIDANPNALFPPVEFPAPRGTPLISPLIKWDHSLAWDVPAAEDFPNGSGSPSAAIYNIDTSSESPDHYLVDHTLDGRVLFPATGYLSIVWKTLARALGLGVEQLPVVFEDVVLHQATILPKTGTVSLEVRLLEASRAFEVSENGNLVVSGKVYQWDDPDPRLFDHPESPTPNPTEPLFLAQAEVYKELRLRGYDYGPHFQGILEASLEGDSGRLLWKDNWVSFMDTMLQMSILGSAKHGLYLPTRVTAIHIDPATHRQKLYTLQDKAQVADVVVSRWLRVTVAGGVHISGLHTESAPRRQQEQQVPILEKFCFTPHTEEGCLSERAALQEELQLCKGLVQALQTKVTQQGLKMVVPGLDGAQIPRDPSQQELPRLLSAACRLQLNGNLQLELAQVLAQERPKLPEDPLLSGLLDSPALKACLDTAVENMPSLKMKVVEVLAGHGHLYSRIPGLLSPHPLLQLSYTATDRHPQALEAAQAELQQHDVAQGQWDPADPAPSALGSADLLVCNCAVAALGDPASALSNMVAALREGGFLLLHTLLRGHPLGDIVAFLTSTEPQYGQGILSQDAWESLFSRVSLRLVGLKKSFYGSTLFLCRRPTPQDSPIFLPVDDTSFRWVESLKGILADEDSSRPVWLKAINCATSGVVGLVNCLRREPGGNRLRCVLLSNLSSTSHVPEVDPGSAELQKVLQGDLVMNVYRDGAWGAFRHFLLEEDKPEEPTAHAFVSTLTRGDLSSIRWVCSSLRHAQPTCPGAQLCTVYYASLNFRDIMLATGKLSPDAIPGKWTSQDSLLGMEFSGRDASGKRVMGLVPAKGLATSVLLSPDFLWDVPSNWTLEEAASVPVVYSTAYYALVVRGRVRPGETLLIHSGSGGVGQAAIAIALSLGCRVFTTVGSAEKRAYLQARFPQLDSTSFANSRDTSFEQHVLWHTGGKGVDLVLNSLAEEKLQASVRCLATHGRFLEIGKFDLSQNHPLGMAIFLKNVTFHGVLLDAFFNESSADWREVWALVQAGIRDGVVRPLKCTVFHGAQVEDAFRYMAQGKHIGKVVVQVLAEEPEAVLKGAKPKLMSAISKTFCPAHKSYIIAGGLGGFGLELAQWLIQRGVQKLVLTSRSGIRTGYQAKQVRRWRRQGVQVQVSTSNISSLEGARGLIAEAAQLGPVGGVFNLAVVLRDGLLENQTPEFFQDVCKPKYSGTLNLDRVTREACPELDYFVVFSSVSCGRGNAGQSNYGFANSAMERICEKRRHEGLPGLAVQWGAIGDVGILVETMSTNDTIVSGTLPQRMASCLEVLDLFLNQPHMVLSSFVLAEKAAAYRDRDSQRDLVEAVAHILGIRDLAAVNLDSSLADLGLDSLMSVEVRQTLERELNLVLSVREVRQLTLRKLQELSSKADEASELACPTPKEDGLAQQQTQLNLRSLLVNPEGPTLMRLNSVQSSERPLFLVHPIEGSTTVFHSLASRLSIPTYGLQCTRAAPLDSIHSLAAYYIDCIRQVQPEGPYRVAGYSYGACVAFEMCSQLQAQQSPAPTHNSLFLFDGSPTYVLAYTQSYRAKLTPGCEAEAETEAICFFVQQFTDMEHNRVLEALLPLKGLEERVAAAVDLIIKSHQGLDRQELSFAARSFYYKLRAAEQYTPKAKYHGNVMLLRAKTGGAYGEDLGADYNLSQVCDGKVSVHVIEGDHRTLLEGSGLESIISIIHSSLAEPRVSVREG

[5] = target: T4, Fatty acid synthase; assay: inhibition of human FAS-TE enzyme activity – biochemical, endpoint fluorescence intensity, uHTS hits, dose response (AID 624327); assay type: functional;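 also: fluorescence from hydrolysis of an O-methyl fluorescein acyl ester substrate by the enzyme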
[6] = target: T5, Ubiquitin-conjugating enzyme E2 N (Homo sapiens, UniProt P61088); assay type: functional;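 also: Dose-response confirmation in a TR-FRET assay detecting UBC13-driven polyubiquitin chain formation, inhibition measured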
T5 sequence (P61088 whole entry): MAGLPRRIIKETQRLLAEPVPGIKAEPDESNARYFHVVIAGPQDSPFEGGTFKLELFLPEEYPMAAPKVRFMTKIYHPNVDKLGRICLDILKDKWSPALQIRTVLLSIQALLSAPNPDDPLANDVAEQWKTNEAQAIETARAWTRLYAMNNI

[7] = blockers of HIV-1 ZM109 envelope-driven cell-cell fusion – HeLa effector, CEM target cells, luciferase, cherry-pick, dose response (AID 652058); assay type: functional, cell-based;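 also: luciferase signal from HIV-1 Env mediated cell-cell fusion of effector and target cells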
[8] = HIV-1 AD8 envelope cell-cell fusion blockers – cherry-pick, dose response (AID 652062); assay type: functional, cell-based;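 also: luciferase signal from cell-cell fusion driven by HIV-1 clade B AD8 Env; potency is for inhibitors of fusion seen as a drop in luminescence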
[9] = blockers of HIV-1 envelope-mediated cell-cell fusion – cherry-pick, dose response (AID 652057); assay type: functional, cell-based
[10] = OVCAR-3 cell viability loss – plate reader, dry powder samples, PAX8 inhibitor project, dose response (AID 743044); assay type: functional, cell-based
[11] = target: Paired box protein Pax-8 (Homo sapiens, UniProt Q06710); assay: PAX8 transcriptional activity inhibition in RMG-I – RMG-I cells, luciferase, cherry-pick, dose response (AID 687027); assay type: functional, cell-based;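 also: luciferase reporter driven by Pax8 target thyroperoxidase promoter measured by SteadyGlo luminescence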
Paired box protein Pax-8, sequence (Q06710 whole entry): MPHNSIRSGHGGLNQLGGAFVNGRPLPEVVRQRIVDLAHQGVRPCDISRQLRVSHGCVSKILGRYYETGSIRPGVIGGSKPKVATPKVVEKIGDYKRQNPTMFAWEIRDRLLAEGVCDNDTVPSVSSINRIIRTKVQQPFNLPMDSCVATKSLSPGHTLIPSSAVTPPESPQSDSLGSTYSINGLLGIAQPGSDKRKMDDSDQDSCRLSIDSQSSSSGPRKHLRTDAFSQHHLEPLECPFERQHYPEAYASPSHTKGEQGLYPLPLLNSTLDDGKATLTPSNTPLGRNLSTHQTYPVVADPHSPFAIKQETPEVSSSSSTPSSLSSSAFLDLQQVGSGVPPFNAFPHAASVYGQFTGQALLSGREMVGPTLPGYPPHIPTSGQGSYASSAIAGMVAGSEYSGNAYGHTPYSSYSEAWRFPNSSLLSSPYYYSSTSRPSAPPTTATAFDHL

[12] = system: H9c2; assay: cells; assay type: functional, cell-based; settings: Rattus norvegicus, H9c2, Myocardium;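 also: confirmatory concentration-response retest of ultra-high-throughput screening hits for modulation of myocardial damage; cell death induced by hydrogen peroxide oxidative stress; compound pretreatment for 60 min then peroxide exposure for 2 h; potency is for protecting the cells against peroxide damage rather than for killing them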
[13] = Luminescence Cell-Based Dose Confirmation HTS to Identify Inhibitors of Platelet Dense Granule Release. [Related pubchem assays: 1663 (Primary HTS), 1678 (Summary of Project)]; assay type: functional
[14] = target: Luciferin 4-monooxygenase (Photinus pyralis, UniProt P08659); assay: inhibition of purified Photinus pyralis luciferase – biochemical, luminescence, dose response (AID 1891)
Luciferin 4-monooxygenase, sequence (P08659 whole entry): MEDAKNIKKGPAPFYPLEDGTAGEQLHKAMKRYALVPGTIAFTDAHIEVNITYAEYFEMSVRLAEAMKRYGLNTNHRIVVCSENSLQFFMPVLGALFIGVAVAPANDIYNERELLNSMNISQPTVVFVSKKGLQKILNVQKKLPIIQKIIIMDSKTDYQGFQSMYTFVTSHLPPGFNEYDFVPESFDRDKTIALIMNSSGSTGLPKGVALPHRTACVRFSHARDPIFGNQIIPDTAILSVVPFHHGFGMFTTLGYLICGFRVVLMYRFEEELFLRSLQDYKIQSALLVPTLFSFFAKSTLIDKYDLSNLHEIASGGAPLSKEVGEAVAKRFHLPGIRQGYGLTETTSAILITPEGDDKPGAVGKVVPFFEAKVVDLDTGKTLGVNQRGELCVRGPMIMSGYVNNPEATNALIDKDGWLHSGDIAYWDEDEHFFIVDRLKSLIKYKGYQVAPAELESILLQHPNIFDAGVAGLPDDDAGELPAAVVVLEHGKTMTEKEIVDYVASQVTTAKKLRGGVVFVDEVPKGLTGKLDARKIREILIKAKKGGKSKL

[15] = system: HEK293; assay: EBV LMP1 TES2 canonical NF-kB signalling blockers – cell-based, HEK293, luciferase, cherry-pick, dose response (AID 588343); assay type: functional; settings: Homo sapiens
[16] = blockade of melanocortin 4 receptor signaling – cell-based, plate reader, cherry pick, counter-screen for LGR2 antagonist project, dose response (AID 743444); assay type: functional;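 also: transfected HEK 293 cells stimulated with alpha-MSH peptide; potency of inhibitors of the alpha-MSH evoked signal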
[17] = blockers of bursicon-stimulated LGR2 cAMP reporter – cell-based, HEK293, CRE-luciferase reporter, cherry pick, set 2, dose response (AID 743343); assay type: functional;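 also: transfected cells were stimulated with diluted bursicon conditioned medium after compound addition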
[18] = target: FAD-linked sulfhydryl oxidase ALR (Homo sapiens, UniProt P55789); assay: ALR-catalysed DTT oxidation blockers – biochemical, H2O2 detection, luminescence, cherry-pick, dose response (AID 493248)
FAD-linked sulfhydryl oxidase ALR, sequence (P55789 whole entry): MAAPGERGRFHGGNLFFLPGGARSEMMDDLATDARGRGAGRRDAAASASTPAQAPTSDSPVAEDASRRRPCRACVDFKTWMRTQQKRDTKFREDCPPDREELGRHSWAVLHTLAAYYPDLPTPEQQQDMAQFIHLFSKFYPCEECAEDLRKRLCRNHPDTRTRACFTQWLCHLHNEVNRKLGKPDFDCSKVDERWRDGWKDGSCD

SMILES: CCc1nc2ccccc2c(C(=O)OCCN2C(=O)c3ccccc3C2=O)c1C
- IC50 [6]: > 20 µM (inactive)

SMILES: Cc1ccc(S(=O)(=O)N(C)C[C@@H]2Oc3cc(C4=CCCC4)ccc3S(=O)(=O)N([C@@H](C)CO)C[C@H]2C)cc1
- AC50 [7]: 67.6 µM (active)
- AC50 [8]: 41.6 µM (active)
- AC50 [9]: 4.07 µM (active)

SMILES: C#CCOCCOCCOCCNc1nc(N2CCN(C(=O)[C@H](CCCN=C(N)N)n3cc(C(N)[C@@H](C)CC)nn3)CC2)nc(N2CCN(C(=O)[C@H](CCCCN)n3cc([C@@H](N)CC(N)=O)nn3)CC2)n1 (some centres undefined)
- IC50 [6]: > 20 µM (inactive)

SMILES: O=C(C[C@@H]1C[C@@H]2c3cc(NC(=O)Cc4ccncc4)ccc3O[C@@H]2[C@H](CO)O1)NCc1ccc(-c2ccccc2)cc1
- AC50 [10]: 37.8 µM (active)
- AC50 [11]: 13.3 µM (active)

SMILES: C[C@H]1CN([C@@H](C)CO)C(=O)Cc2cc(NC(=O)NC3CCCCC3)ccc2O[C@H]1CN(C)S(=O)(=O)c1ccc(Cl)cc1
- AC50 [10]: 13.5 µM (active)
- AC50 [11]: 11.9 µM (active)

SMILES: Cc1c(Br)c([N+](=O)[O-])nn1CCCC(=O)N1CCN(c2ccccc2)CC1
- IC50 [4]: 13.1 µM (active)
- IC50 [5]: 11.6 µM (active)

SMILES: CNC(=O)COC(=O)/C=C/c1cn(-c2ccccc2)nc1-c1ccc(C)o1
- IC50 [12]: > 79 µM (inactive)
- IC50 [6]: > 20 µM (inactive)

SMILES: COc1ccc2c3c(n(C)c2c1)[C@@H](CO)N(C(=O)Nc1ccc(F)cc1)CC31CCN(S(=O)(=O)c2cccc(C)c2)CC1
- AC50 [10]: 64 µM (active)
- AC50 [11]: 5.97 µM (active)

SMILES: COC(=O)c1sc(NC(=O)c2ccc(OC)cc2OC)nc1C
- EC50 [13]: 0.749 µM (active)
- EC50 [14]: 0.251 µM (active)
- AC50 [15]: 0.545 µM (active)

SMILES: CCOC(=O)C1CCN(C(=O)c2ccc3c(=O)n4nc(Nc5ccccc5OC)sc4nc3c2)CC1
- IC50 [12]: > 79 µM (inactive)
- IC50 [4]: 11.8 µM (active)
- IC50 [5]: 12.4 µM (active)

SMILES: COc1ccc(Nc2oc(COc3ccc(Cl)cc3)nc2C#N)cc1
- AC50 [15]: 4.08 µM (active)

SMILES: CCn1cc(C(=O)NCc2cccnc2)c(=O)c2cc(F)c(N3CCN(C(=O)c4ccco4)CC3)cc21
- IC50 [1]: > 50 µM (inactive)

SMILES: COC(=O)c1c(NC(=O)c2ccc(Br)s2)sc2c1CCC2
- IC50 [1]: 44.4 µM (active)

SMILES: CC(C)(C)c1ccc(C(=O)N2CCC2(C)C(=O)NS(=O)(=O)c2ccc(C#N)cc2)cc1 (centres undefined)
- IC50 [4]: 8.79 µM (active)
- IC50 [5]: 9.51 µM (active)

SMILES: OC1CCC(Nc2ccn3nc(-c4cccc(OCc5ccccc5)c4)cc3n2)CC1 (centres undefined)
- AC50 [16]: 37.1 µM (active)
- AC50 [17]: 34.3 µM (active)

SMILES: CC(C)(C)c1ccc(Oc2ccc(NC(=O)CCCC(=O)O)cn2)cc1
- AC50 [18]: 1.49 µM (active)
- IC50 [1]: > 50 µM (inactive)

SMILES: CO/N=C/c1ccc(Sc2ccccc2N)c([N+](=O)[O-])c1
- IC50 [1]: > 50 µM (inactive)
- IC50 [2]: 9.01 µM (not active)

SMILES: Cc1ccnc(NC(=O)c2sc3ccccc3c2Cl)c1
- AC50 [15]: 1.46 µM (active)

SMILES: CC(C)NC(=O)Nc1ccc2c(c1)C(=O)N([C@@H](C)CO)C[C@@H](C)[C@@H](CN(C)C(=O)CCC(F)(F)F)OCCCC[C@@H](C)O2
- AC50 [7]: 0.518 µM (active)
- AC50 [8]: 2.7 µM (active)
- AC50 [9]: 0.969 µM (active)

The next lines start with the values.

- IC50 [1]: > 50 µM (inactive)
- IC50 [2]: 4.76 µM (not active)
SMILES: Cc1noc(C)c1CSc1nc2ccccc2c(=O)n1-c1ccc(F)cc1F

- EC50 [3]: > 53 µM (inactive)
- IC50 [4]: 2.26 µM (active)
- IC50 [5]: 2.04 µM (active)
SMILES: O=C(C[C@H]1C[C@H](C(=O)N2CCOCC2)[C@@]2(CCC3CCCC3)c3[nH]c4ccc(Cl)cc4c3CCN2C1=O)NCCN1CCOCC1

- IC50 [1]: > 50 µM (inactive)
SMILES: Cc1c(NC(=O)c2ccc(Br)o2)cccc1C(=O)O

- IC50 [4]: 1.33 µM (active)
- IC50 [5]: 1.44 µM (active)
SMILES: O=C(COC(=O)c1cc([N+](=O)[O-])ccc1N1CCOCC1)NCc1ccc(F)cc1

- IC50 [4]: 7.64 µM (active)
- IC50 [5]: 13.3 µM (active)
SMILES: O=C(CCNc1ccc(Br)cc1)c1cccc([N+](=O)[O-])c1

- IC50 [1]: > 50 µM (inactive)
SMILES: COc1ccc(N2CCCn3c2nc2c3c(=O)n(Cc3ccc(C)cc3)c(=O)n2C)c(OC)c1

- IC50 [4]: 12.4 µM (active)
- IC50 [5]: 13.1 µM (active)
SMILES: O=C(Cn1nc(-c2ccco2)ccc1=O)Nc1ccc(Cl)c(Cl)c1

- IC50 [6]: > 20 µM (inactive)
SMILES: O=C1c2cc(Cl)ccc2OC2(CCNCC2)C12CC(c1ccc(Cl)cc1)=NO2 (centres undefined)

- IC50 [4]: 17.9 µM (active)
- IC50 [5]: 19.1 µM (active)
SMILES: COc1ccc(C(=O)OC(C)C(=O)NC(C)CCc2ccccc2)cc1[N+](=O)[O-] (centres undefined)

- IC50 [4]: 2.59 µM (active)
- IC50 [5]: 3.79 µM (active)
SMILES: N#CC1(NC(=O)COC(=O)c2cc([N+](=O)[O-])ccc2N2CCOCC2)CCCCC1

- IC50 [1]: > 50 µM (inactive)
SMILES: [O-][S+](NC1CCCCC1)C12CC3CC(CC(C3)C1)C2 (centres undefined)

- IC50 [1]: > 50 µM (inactive)
SMILES: O=C(NCc1ccc2c3c(cccc13)C(=O)N2)c1cccs1

- IC50 [1]: > 50 µM (inactive)
SMILES: O=C(O)CCN1C(=O)C2C3c4ccccc4C(c4ccccc43)[C@@H]2C1=O (some centres undefined)

- IC50 [1]: > 50 µM (inactive)
SMILES: Cc1ccccc1Cn1cnc2c(NS(C)(=O)=O)c(C)c(C)cc21

- IC50 [1]: 18 µM (active)
SMILES: O=C(Oc1ccc2c(=O)c(Cl)coc2c1)c1ccncc1
